{
  "source": "patent US20020143059A1",
  "about": "“Skin care product containing retinoids, retinoid booster and phytoestrogens in a dual compartment package” (priority 2000, published 2002)",
  "target": "T1, CRABPII (Homo sapiens, UniProt P29373)",
  "T1 construct": "made in house; host or cells: E. coli BLR(DE3)pLysS",
  "T1 sequence (P29373 1-138)": "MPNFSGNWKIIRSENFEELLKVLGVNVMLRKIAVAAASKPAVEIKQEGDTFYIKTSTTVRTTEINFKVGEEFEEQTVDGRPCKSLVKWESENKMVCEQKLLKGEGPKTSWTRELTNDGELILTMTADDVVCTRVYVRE",
  "assay": "CRABPII antagonist radioactive binding assay",
  "details": "competition with radioactive all trans retinoic acid, ligand in excess",
  "source_text": "2.6 Assay for CRABPII antagonists (To identify B4)\n2.6.1 Synthesis of CRABPII\nThe gene CRABPII was cloned in pET 29a-c(+) plasmid (Novagen). The cloned gene was under control of strong bacteriophage T7 transcription and translation signals. The source of T7 polymerase was provided by the host cell E.coli BLR(DE3)pLysS (Novagen). The latter has a chromosomal copy of T7 polymerase under lacUV5 control, induced by the presence of IPTG. The plasmid was transferred into E. coli BLR(DE3)pLysS cells by transformation according to the manufacturer protocol (Novagen).\nAn overnight culture of the transformed cells was diluted 1:100 into 2xYT containing 50 μg/mL kanamycin and 25 μg/mL chloramphenicol. The cells grew while shaking at 37° C. until the OD at 600 nm reached 0.6-0.8. Then IPTG was added to a final concentration of 1 mM and the culture was incubated for an additional two hours. The cells were harvested by centrifugation at 5000 g for 10 minutes at room temperature. The pellet was stored at −20° C. […]\nThe supernatant from step a. was loaded onto a 2.5×100 cm column of sephacryl S-300 (Pharmacia) at room temperature. […] Collected 2-mL fractions were checked for ultraviolet absorbance at 280 nm. […]\nFor the competitive assay, another ligand in excess (6670:1, 670:1 or 70:1) was added to the mix. […] The radioactivity of the filtrate was measured by scintillation counter.",
  "data": [
    {"smiles": "CCCCCCC(O)CCCCCCCCCCC(=O)O", "note": "(stereo not shown) [12-Hydroxystearic Acid]", "values": [
      {"measurement": "% Inhibition CRABPII", "result": ">50", "unit": "%"}
    ]}
  ]
}
